In patent publication US5126336A, “Antibiotic C-3 catechol-substituted cephalosporin compounds, compositions and method of use thereof” (Bristol-Myers Squibb Company, priority 1990, dated 1992):
In brackets after ≈: the same amount, converted by molar mass. Read-outs that look alike come from different tables or passages of the source.

Columns and labels:
Experiment in all cases: MIC, agar dilution
Format in all cases: cell-based
P. aeruginosa A9843A = settings: Pseudomonas aeruginosa, A9843A, 18 h, pH 7.2
Method: (§1) Minimum inhibitory concentrations (MICs) of the present series of cephalosporins were determined against 32 strains of test organisms by two-fold serial agar dilution method in Mueller-Hinton agar. Geometric means of MICs were calculated against six groups of the test organisms which are classified as follows and summarized in Table 1.
(§2) In vivo antibacterial activity was determined against three bacterial infections (S. aureus Smith, E. coli Juhl and P. aeruginosa A9843A) by intramuscular administration to mice just after the bacterial challenge. PD50 values are summarized in Table 3 in comparsion with the MIC values against the corresponding organisms.
(§3) Medium; MuellerHinton agar (pH = 7.2)
(§4) Incubation temperature: 32° C., 18 hr
(§5) Inoculum size; 10^6 cells/ml

S. aureus Smith = settings: Staphylococcus aureus
Method: as §1, §2, §3, §4, §5

E. coli Juhl A15119 = settings: Escherichia coli, JUHLA15119; E. coli Juhl A15119; Mueller-Hinton agar pH 7.2; 32° C., 18 hr; 10^6 cells/ml; read-out: MIC
Method: as §1, §2, §3, §4, §5

P. vulgaris IPM-13 = settings: Proteus vulgaris, IPM13, Mueller-Hinton agar pH 7.2, 32° C., 18 hr, 10^6 cells/ml
Method: as §1, §3, §4, §5

X. maltophilia GN 12873 = settings: Stenotrophomonas maltophilia, GN12873, Mueller-Hinton agar pH 7.2, 32° C., 18 hr, 10^6 cells/ml
Method: as §1, §3, §4, §5

K. pneumoniae PCI 602 = settings: Klebsiella pneumoniae, PCI602, Mueller-Hinton agar pH 7.2, 32° C., 18 hr, 10^6 cells/ml
Method: as §1, §3, §4, §5

M. morgani 1510/9 = settings: Mueller-Hinton agar pH 7.2, 32° C., 18 hr, 10^6 cells/ml
Method: as §1, §3, §4, §5

C. terrigena IFO 12685 = settings: Mueller-Hinton agar pH 7.2, 32° C., 18 hr, 10^6 cells/ml
Method: as §1, §3, §4, §5

E. coli 255 = settings: Escherichia coli, Mueller-Hinton agar pH 7.2, 32° C., 18 hr, 10^6 cells/ml
Method: as §1, §3, §4, §5

S. aureus 4-1015 (MRSA) = settings: Staphylococcus aureus, Mueller-Hinton agar pH 7.2, 32° C., 18 hr, 10^6 cells/ml
Method: as §1, §3, §4, §5

E. faecium A24817 = settings: Enterococcus faecium, Mueller-Hinton agar pH 7.2, 32° C., 18 hr, 10^6 cells/ml
Method: as §1, §3, §4, §5

S. marcescens IPM-15 = settings: Serratia marcescens, IPM15, Mueller-Hinton agar pH 7.2, 32° C., 18 hr, 10^6 cells/ml
Method: as §1, §3, §4, §5

P. aeruginosa A20599 = settings: Pseudomonas aeruginosa, Mueller-Hinton agar pH 7.2, 32° C., 18 hr, 10^6 cells/ml
Method: as §1, §3, §4, §5

P. aeruginosa KKA 19 = settings: Pseudomonas aeruginosa, KKA19, Mueller-Hinton agar pH 7.2, 32° C., 18 hr, 10^6 cells/ml
Method: as §1, §3, §4, §5

S. aureus IPM-24 (MRSA) = settings: Staphylococcus aureus, Mueller-Hinton agar pH 7.2, 32° C., 18 hr, 10^6 cells/ml
Method: as §1, §3, §4, §5

M. luteus 1001 = settings: Micrococcus luteus, Mueller-Hinton agar pH 7.2, 32° C., 18 hr, 10^6 cells/ml
Method: as §1, §3, §4, §5

M. morgani 1510 = settings: Mueller-Hinton agar pH 7.2, 32° C., 18 hr, 10^6 cells/ml
Method: as §1, §3, §4, §5

S. marcescens IPM-16 = settings: Serratia marcescens, IPM16, Mueller-Hinton agar pH 7.2, 32° C., 18 hr, 10^6 cells/ml
Method: as §1, §3, §4, §5

P. aeruginosa IPM-8 = settings: Pseudomonas aeruginosa, IPM8, Mueller-Hinton agar pH 7.2, 32° C., 18 hr, 10^6 cells/ml
Method: as §1, §3, §4, §5

P. aeruginosa IPM-9 = settings: Pseudomonas aeruginosa, IPM9, Mueller-Hinton agar pH 7.2, 32° C., 18 hr, 10^6 cells/ml
Method: as §1, §3, §4, §5

B. subtilis PCI 219 = settings: Bacillus subtilis, PCI219, Mueller-Hinton agar pH 7.2, 32° C., 18 hr, 10^6 cells/ml
Method: as §1, §3, §4, §5

P. mirabilis IFO-2849 = settings: Proteus mirabilis, IFO2849, Mueller-Hinton agar pH 7.2, 32° C., 18 hr, 10^6 cells/ml
Method: as §1, §3, §4, §5

P. cepacia No. 651 = settings: Burkholderia cepacia, Mueller-Hinton agar pH 7.2, 32° C., 18 hr, 10^6 cells/ml
Method: as §1, §3, §4, §5

S. aureus 209P = settings: Staphylococcus aureus; S. aureus 209P; Mueller-Hinton agar pH 7.2; 32° C., 18 hr; 10^6 cells/ml; read-out: MIC
Method: as §1, §3, §4, §5

P. rettgeri IPM-14 = settings: Providencia rettgeri, IPM14, Mueller-Hinton agar pH 7.2, 32° C., 18 hr, 10^6 cells/ml
Method: as §1, §3, §4, §5

X. maltophilia No. 661 = settings: Stenotrophomonas maltophilia, Mueller-Hinton agar pH 7.2, 32° C., 18 hr, 10^6 cells/ml
Method: as §1, §3, §4, §5

C. freundii GN 7391 = settings: Citrobacter freundii, GN7391, Mueller-Hinton agar pH 7.2, 32° C., 18 hr, 10^6 cells/ml
Method: as §1, §3, §4, §5

E. faecalis A9808 = settings: Enterococcus faecalis, Mueller-Hinton agar pH 7.2, 32° C., 18 hr, 10^6 cells/ml
Method: as §1, §3, §4, §5

S. epidermidis 11-1230 = settings: Staphylococcus epidermidis, 111230, Mueller-Hinton agar pH 7.2, 32° C., 18 hr, 10^6 cells/ml
Method: as §1, §3, §4, §5

E. cloacae IPM-12 = settings: Enterobacter cloacae, IPM12, Mueller-Hinton agar pH 7.2, 32° C., 18 hr, 10^6 cells/ml
Method: as §1, §3, §4, §5

P. cepacia A21213 = settings: Burkholderia cepacia, Mueller-Hinton agar pH 7.2, 32° C., 18 hr, 10^6 cells/ml
Method: as §1, §3, §4, §5

[1] = S. aureus Smith, Mueller-Hinton agar pH 7.2, 32° C., 18 hr, 10^6 cells/ml, read-out: MIC

Row | SMILES | MIC (P. aeruginosa A9843A) | MIC (E. coli Juhl A15119) | MIC (P. vulgaris IPM-13) | MIC (X. maltophilia GN 12873) | MIC (K. pneumoniae PCI 602) | MIC (M. morgani 1510/9) | MIC (C. terrigena IFO 12685) | MIC (E. coli 255) | MIC (S. aureus 4-1015 (MRSA)) | MIC (E. faecium A24817) | MIC (S. marcescens IPM-15) | MIC (P. aeruginosa A20599) | MIC (P. aeruginosa KKA 19) | MIC (S. aureus IPM-24 (MRSA)) | MIC (M. luteus 1001) | MIC (M. morgani 1510) | MIC (S. marcescens IPM-16) | MIC (P. aeruginosa IPM-8) | MIC (P. aeruginosa IPM-9) | MIC (B. subtilis PCI 219) | other results
1 | C[n+]1cn(C/C=C/C2=C(C(=O)[O-])N3C(=O)C(NC(=O)/C(=N\OC(C)(C)C(=O)O)c4csc(N)n4)C3SC2)c2cc(O)c(O)cc21 (stereo not drawn) [Ip, 7-[(Z)-2-(2-Aminothiazol-4-yl)-2-(1-methyl-1-carboxyethoxy-imino)acetamido]-3-[(E)-3-(5,6-dihydroxy-3-methylbenzimi-dazol-3-io-1-yl)-1-propen-1-yl]-3-cephem-4-carboxylate] | 0.1 µg/mL (≈ 0.152 µM) | 0.2 µg/mL (≈ 0.304 µM) | 12.5 µg/mL (≈ 19 µM) | 1.6 µg/mL (≈ 2.43 µM) | 0.013 µg/mL (≈ 0.0198 µM) | 0.1 µg/mL (≈ 0.152 µM) | 1.6 µg/mL (≈ 2.43 µM) | 0.05 µg/mL (≈ 0.076 µM) | > 100 µg/mL | > 100 µg/mL | > 100 µg/mL | 0.2 µg/mL (≈ 0.304 µM) | 0.2 µg/mL (≈ 0.304 µM) | > 100 µg/mL | 3.1 µg/mL (≈ 4.71 µM) | 1.6 µg/mL (≈ 2.43 µM) | 3.1 µg/mL (≈ 4.71 µM) | 0.1 µg/mL (≈ 0.152 µM) | 12.5 µg/mL (≈ 19 µM) | 12.5 µg/mL (≈ 19 µM) | MIC (S. aureus Smith; 18 h, pH 7.2): 100 µg/mL (≈ 152 µM); MIC (P. mirabilis IFO-2849): 0.05 µg/mL (≈ 0.076 µM); MIC (P. cepacia No. 651): 3.1 µg/mL (≈ 4.71 µM); MIC (S. aureus 209P): 25 µg/mL (≈ 38 µM); MIC (P. rettgeri IPM-14): 0.2 µg/mL (≈ 0.304 µM); MIC (X. maltophilia No. 661): 0.8 µg/mL (≈ 1.22 µM); MIC (C. freundii GN 7391): 12.5 µg/mL (≈ 19 µM); MIC (E. faecalis A9808): > 100 µg/mL; MIC (S. epidermidis 11-1230): 25 µg/mL (≈ 38 µM); MIC (E. cloacae IPM-12): 3.1 µg/mL (≈ 4.71 µM); MIC (P. cepacia A21213): 1.6 µg/mL (≈ 2.43 µM)
2 | CC(C)(O/N=C(\C(=O)NC1C(=O)N2C(C(=O)[O-])=C(/C=C/C[n+]3cc4cc(O)c(O)cc4cn3)CS[C@H]12)c1csc(N)n1)C(=O)O (stereo partly drawn) [Ii, 7-[(Z)-2-(2-Aminothiazol-4-yl)-2-(1-methyl-1-carboxyethoxy-imino)acetamido]-3-[(E)-3-(6,7-dihydroxyphthalazin-2-io)-1-propen-1-yl]-3-cephem-4-carboxylate] | 0.1 µg/mL (≈ 0.153 µM) | 0.2 µg/mL (≈ 0.305 µM) | 12.5 µg/mL (≈ 19.1 µM) | 100 µg/mL (≈ 153 µM) | < 0.0063 µg/mL | 0.05 µg/mL (≈ 0.0763 µM) | 0.8 µg/mL (≈ 1.22 µM) | 0.013 µg/mL (≈ 0.0198 µM) | > 100 µg/mL | > 100 µg/mL | > 100 µg/mL | 0.2 µg/mL (≈ 0.305 µM) | 0.8 µg/mL (≈ 1.22 µM) | > 100 µg/mL | 3.1 µg/mL (≈ 4.73 µM) | 0.8 µg/mL (≈ 1.22 µM) | 1.6 µg/mL (≈ 2.44 µM) | 0.2 µg/mL (≈ 0.305 µM) | > 100 µg/mL | 12.5 µg/mL (≈ 19.1 µM) | MIC (S. aureus Smith; [1]): 25 µg/mL (≈ 38.1 µM); MIC (P. mirabilis IFO-2849): 0.025 µg/mL (≈ 0.0381 µM); MIC (P. cepacia No. 651): 1.6 µg/mL (≈ 2.44 µM); MIC (S. aureus 209P): 25 µg/mL (≈ 38.1 µM); MIC (P. rettgeri IPM-14): 0.1 µg/mL (≈ 0.153 µM); MIC (X. maltophilia No. 661): 50 µg/mL (≈ 76.3 µM); MIC (C. freundii GN 7391): 25 µg/mL (≈ 38.1 µM); MIC (E. faecalis A9808): > 100 µg/mL; MIC (S. epidermidis 11-1230): 25 µg/mL (≈ 38.1 µM); MIC (E. cloacae IPM-12): 0.8 µg/mL (≈ 1.22 µM); MIC (P. cepacia A21213): 0.8 µg/mL (≈ 1.22 µM)
3 | CO/N=C(\C(=O)NC1C(=O)N2C(C(=O)O)=C(/C=C/Cn3cnc4cc(O)c(O)cc43)CS[C@H]12)c1csc(N)n1 (stereo partly drawn) [Iu, 7-[(Z)-2-(2-aminothiazol-4-yl)-2-methoxyiminoacetamido]-3-[(E)-3-(5,6-dihydroxybenzimidazol-1-yl)-1-propen-1-yl]-3-cephem-4-carboxylic acid] | 6.3 µg/mL (≈ 11 µM) | 0.2 µg/mL (≈ 0.35 µM) | > 100 µg/mL | > 100 µg/mL | 0.05 µg/mL (≈ 0.0875 µM) | 0.4 µg/mL (≈ 0.7 µM) | 1.6 µg/mL (≈ 2.8 µM) | 0.8 µg/mL (≈ 1.4 µM) | 50 µg/mL (≈ 87.5 µM) | > 100 µg/mL | > 100 µg/mL | 6.3 µg/mL (≈ 11 µM) | 100 µg/mL (≈ 175 µM) | > 100 µg/mL | 0.8 µg/mL (≈ 1.4 µM) | 25 µg/mL (≈ 43.7 µM) | > 100 µg/mL | 25 µg/mL (≈ 43.7 µM) | 100 µg/mL (≈ 175 µM) | 3.1 µg/mL (≈ 5.42 µM) | MIC (S. aureus Smith; [1]): 6.3 µg/mL (≈ 11 µM); MIC (P. mirabilis IFO-2849): 0.1 µg/mL (≈ 0.175 µM); MIC (P. cepacia No. 651): > 100 µg/mL; MIC (S. aureus 209P): 6.3 µg/mL (≈ 11 µM); MIC (P. rettgeri IPM-14): 0.8 µg/mL (≈ 1.4 µM); MIC (X. maltophilia No. 661): > 100 µg/mL; MIC (C. freundii GN 7391): 100 µg/mL (≈ 175 µM); MIC (E. faecalis A9808): 100 µg/mL (≈ 175 µM); MIC (S. epidermidis 11-1230): 50 µg/mL (≈ 87.5 µM); MIC (E. cloacae IPM-12): > 100 µg/mL; MIC (P. cepacia A21213): > 100 µg/mL
